Measured values reported in ChEMBL document CHEMBL1159240, “(-)-Roemerine, an aporphine alkaloid from Annona senegalensis that reverses the multidrug-resistance phenotype with cultured cells” (1995).
Values after ≈ are worked out from the molar mass of the structure shown.

Tests used:
A-431 = test: Cytotoxicity against human A431 cells after 72 hrs by SRB assay; format: functional; settings: A-431, 72 h, read-out: ED50 (the source's name)
HT = test: Cytotoxicity against human HT cells after 72 hrs by SRB assay; format: functional; settings: read-out: ED50 (the source's name)
Lu1 = test: Cytotoxicity against human Lu1 cells after 72 hrs by SRB assay; format: functional; settings: Lu1, 72 h, read-out: ED50 (the source's name)
[1] = Cytotoxicity against human U373 cells after 72 hrs by SRB assay; format: functional, U-373MG ATCC; settings: U373 MG, read-out: ED50 (the source's name)
[2] = Cytotoxicity against human BC1 cells after 72 hrs by SRB assay; format: functional; settings: BC1, 72 h, read-out: ED50 (the source's name)
[3] = Cytotoxicity against human KB3 cells after 72 hrs by SRB assay; format: functional; settings: KB3, 72 h, read-out: ED50 (the source's name)
Col2 = test: Cytotoxicity against human Col2 cells after 72 hrs by SRB assay; format: functional; settings: Col2, 72 h, read-out: ED50 (the source's name)
ZR-75-1 = test: Cytotoxicity against human ZR-75-1 cells after 72 hrs by SRB assay; format: functional; settings: ZR-75-1, 72 h, read-out: ED50 (the source's name)
LNCaP = test: Cytotoxicity against human LNCAP cells after 72 hrs by SRB assay; format: functional; settings: read-out: ED50 (the source's name)
[4] = Cytotoxicity against human multidrug resistant KBV1 cells in presence of vinblastine; format: functional; settings: KB-V1, read-out: ED50 (the source's name)
[5] = Cytotoxicity against human multidrug resistant KBV1 cells in absence of vinblastine after 72 hrs by SRB assay; format: functional; settings: KB-V1, 72 h, read-out: ED50 (the source's name)
P388 = test: Cytotoxicity against mouse P388 cells after 72 hrs by SRB assay; format: functional; settings: P388, 72 h, read-out: ED50 (the source's name)
SK-MEL-2 = test: Cytotoxicity against human SK-MEL-2 cells after 72 hrs by SRB assay; format: functional; settings: SK-MEL-2, 72 h, read-out: ED50 (the source's name)

`CN1CCc2cc3c(c4c2[C@H]1Cc1ccccc1-4)OCO3` gave an EC50 (A-431) of 4.3 µg/mL (≈ 15.4 µM), an EC50 (HT) of 6.4 µg/mL (≈ 22.9 µM) and an EC50 (Lu1) of 6.6 µg/mL (≈ 23.6 µM). For the same compound, the EC50 [1] was 5 µg/mL (≈ 17.9 µM), the EC50 [2] was 8.3 µg/mL (≈ 29.7 µM) and the EC50 [3] was greater than 20 µg/mL. It also gave an EC50 (Col2) of 5.8 µg/mL (≈ 20.8 µM), an EC50 (ZR-75-1) greater than 20 µg/mL and an EC50 (LNCaP) of 10.7 µg/mL (≈ 38.3 µM). It also gave an EC50 [4] of 0.6 µg/mL, an EC50 [5] greater than 20 µg/mL and an EC50 (P388) greater than 5 µg/mL. For the same compound, the EC50 (SK-MEL-2) was greater than 20 µg/mL.
